Experiment: Assay (I): Determination of Solubility (96-well plate, pH 3.0-11.0, organic solvent 0-70% w/w, UV absorption at 280 nm)
Format: physicochemical
Settings: Method 1
Protocol: Assay (I): Determination of Solubility
96-Well Plate Preparation
96-well plates containing target peptide in a solid form were prepared in one of two ways:
Method 1 (evaporation): Addition of 100 μl stock solution of said peptide at a concentration of 4-6 mg/ml to each well of a 96-well half area plate (150 μl well size). Subsequently the solvent was evaporated by applying a vacuum until the solvent was completely removed.
Method 2 (precipitation): Addition of a certain volume of a stock solution of said peptide containing to each well of a 96-well half area plate followed by the addition of a certain volume of concentrated phosphoric acid to obtain a pH of 4.6 followed by addition of a certain volume of ethanol resulting in a final ethanol concentration of 20% v/v. Subsequently the plate was stored at 4° C. for 1 h and then centrifuged at 4,000 rpm for 20 min. Finally the supernatant was removed. The concentration of the stock solution was chosen in a way that the final amount of peptide after supernatant removal was >0.4 mg per well.
In both cases the stock solution was prepared by adding de-ionized water to a certain amount of powder of said peptide followed by a stepwise addition of small amounts of a concentrated sodium hydroxide solution until said peptide was completely in solution.
To determine solubility of a target peptide at different pH and organic solvent concentrations, two different buffer systems were used in independent experiments to cover the whole range from pH 3.0 to pH 11.0. Buffer system 1 covers pH 3.0-7.5 and buffer system 2 covers pH 7.5-11.0. For each buffer system 96 different solvent compositions were premixed in the following way: • 1. A low pH buffer (adjusted to either pH 3.0 or pH 7.5) and a high pH buffer (adjusted to either pH 7.5 or pH 11.0) were mixed at 8 different ratios to obtain values between pH 3.0 and pH 7.5 or pH 7.5 and pH 11.0, respectively. The total volume after mixing was 300 μl. • 2. 12 different amounts of organic solvent were then added to these buffers to obtain organic solvent (e.g. ethanol) concentrations between 0 and 70% w/w. • 3. Water was then added to obtain a total weight of 1.0 g of solvent in each well.
After preparing the 96 different solvent systems, 100 μl of each system was transferred to the 96-well plate containing the solid form of the target peptide (prepared as described in the section “96-well plate preparation”). The plate was then stored at a given temperature (between 5° C. and 70° C.) for a given time on a rotating shaker set to 400 rpm. At regular time intervals the plate was centrifuged (4,000 rpm for 10 min) and a 10 μl sample was taken from each well. The samples were then analysed by UV absorption at 280 nm for peptide quantification. Peptide concentration results are given as UV absorption at 280 nm of the sample subtracted UV absorption at 280 nm of a well comprising 10 μl water.
The buffers used were as follows: • Buffer system 1 (for the pH range from pH 3.0-7.5)
• Buffer system 2 (for the pH ranae from pH 7.5-11.0)
Solubility of liraglutide was determined using Assay (I) described herein. Liraglutide was prepared using Method 1 (evaporation) or Method 2 (precipitation) as described in subsection “96-well plate preparation”.

- Peptide concentration after 5 min (MeCN 0.0% w/w, pH 3.0, RT): 0.1 mg/mL
- Peptide concentration after 180 min (MeCN 0.0% w/w, pH 3.0, RT): 0.1 mg/mL
- Peptide concentration after 5 min (MeCN 0.0% w/w, pH 3.6, RT): 0.1 mg/mL
- Peptide concentration after 180 min (MeCN 0.0% w/w, pH 3.6, RT): 0.1 mg/mL
- Peptide concentration after 5 min (MeCN 0.0% w/w, pH 4.3, 5° C.): 0.1 mg/mL
- Peptide concentration after 180 min (MeCN 0.0% w/w, pH 4.3, 5° C.): 0.1 mg/mL
- Peptide concentration after 5 min (MeCN 0.0% w/w, pH 4.3, RT): 0.1 mg/mL
- Peptide concentration after 180 min (MeCN 0.0% w/w, pH 4.3, RT): 0.1 mg/mL
- Peptide concentration after 24 h (MeCN 0.0% w/w, pH 4.3, RT): 0.0 mg/mL
- Peptide concentration after 5 min (MeCN 0.0% w/w, pH 4.9, 5° C.): 0.2 mg/mL
- Peptide concentration after 180 min (MeCN 0.0% w/w, pH 4.9, 5° C.): 0.1 mg/mL
- Peptide concentration after 5 min (MeCN 0.0% w/w, pH 5.6, 5° C.): 0.1 mg/mL
- Peptide concentration after 180 min (MeCN 0.0% w/w, pH 5.6, 5° C.): 0.1 mg/mL
- Peptide concentration after 24 h (MeCN 0.0% w/w, pH 5.6, 5° C.): 0.1 mg/mL
- Peptide concentration after 24 h (MeCN 0.0% w/w, pH 5.6, RT): 0.0 mg/mL
- Peptide concentration after 5 min (MeCN 0.0% w/w, pH 6.2, 5° C.): 0.1 mg/mL
- Peptide concentration after 180 min (MeCN 0.0% w/w, pH 6.2, 5° C.): 0.1 mg/mL
- Peptide concentration after 5 min (MeCN 0.0% w/w, pH 6.9, 5° C.): 0.4 mg/mL
- Peptide concentration after 180 min (MeCN 0.0% w/w, pH 6.9, 5° C.): 2.0 mg/mL
- Peptide concentration after 24 h (MeCN 0.0% w/w, pH 6.9, 5° C.): >4.0 mg/mL
- Peptide concentration after 24 h (MeCN 0.0% w/w, pH 6.9, RT): >4.0 mg/mL
- Peptide concentration after 5 min (MeCN 0.0% w/w, pH 7.5, 5° C.): 0.6 mg/mL
- Peptide concentration after 180 min (MeCN 0.0% w/w, pH 7.5, 5° C.): 2.6 mg/mL
- Peptide concentration after 24 h (MeCN 0.0% w/w, pH 7.5, 5° C.): >4.0 mg/mL
- Peptide concentration after 24 h (MeCN 0.0% w/w, pH 7.5, RT): >4.0 mg/mL
- Peptide concentration after 5 min (MeCN 0.0% w/w, pH 8.0, 5° C.): 0.5 mg/mL
- Peptide concentration after 180 min (MeCN 0.0% w/w, pH 8.0, 5° C.): 2.1 mg/mL
- Peptide concentration after 24 h (MeCN 0.0% w/w, pH 8.0, 5° C.): >4.0 mg/mL
- Peptide concentration after 5 min (MeCN 0.0% w/w, pH 8.5, 5° C.): 0.3 mg/mL
- Peptide concentration after 180 min (MeCN 0.0% w/w, pH 8.5, 5° C.): 2.9 mg/mL
- Peptide concentration after 24 h (MeCN 0.0% w/w, pH 8.5, 5° C.): >4.0 mg/mL
- Peptide concentration after 5 min (MeCN 0.0% w/w, pH 9.0, 5° C.): 0.3 mg/mL
- Peptide concentration after 180 min (MeCN 0.0% w/w, pH 9.0, 5° C.): 2.8 mg/mL
- Peptide concentration after 24 h (MeCN 0.0% w/w, pH 9.0, 5° C.): >4.0 mg/mL
- Peptide concentration after 5 min (MeCN 0.0% w/w, pH 9.5, 5° C.): 0.4 mg/mL
- Peptide concentration after 180 min (MeCN 0.0% w/w, pH 9.5, 5° C.): 2.6 mg/mL
- Peptide concentration after 24 h (MeCN 0.0% w/w, pH 9.5, 5° C.): >4.0 mg/mL
- Peptide concentration after 5 min (MeCN 0.0% w/w, pH 10.0, 5° C.): 0.4 mg/mL
- Peptide concentration after 180 min (MeCN 0.0% w/w, pH 10.0, 5° C.): 3.1 mg/mL
- Peptide concentration after 24 h (MeCN 0.0% w/w, pH 10.0, 5° C.): >4.0 mg/mL
- Peptide concentration after 5 min (MeCN 0.0% w/w, pH 10.5, 5° C.): 0.5 mg/mL
- Peptide concentration after 180 min (MeCN 0.0% w/w, pH 10.5, 5° C.): 2.9 mg/mL
- Peptide concentration after 24 h (MeCN 0.0% w/w, pH 10.5, 5° C.): >4.0 mg/mL
- Peptide concentration after 5 min (MeCN 0.0% w/w, pH 11.0, 5° C.): 0.2 mg/mL
- Peptide concentration after 180 min (MeCN 0.0% w/w, pH 11.0, 5° C.): 1.6 mg/mL
- Peptide concentration after 24 h (MeCN 0.0% w/w, pH 11.0, 5° C.): >4.0 mg/mL
- Peptide concentration after 5 min (MeCN 6.4% w/w, pH 3.0, 5° C.): 0.1 mg/mL
- Peptide concentration after 180 min (MeCN 6.4% w/w, pH 3.0, 5° C.): 0.2 mg/mL
- Peptide concentration after 24 h (MeCN 6.4% w/w, pH 3.0, 5° C.): 0.3 mg/mL
- Peptide concentration after 24 h (MeCN 6.4% w/w, pH 3.0, RT): 0.1 mg/mL
- Peptide concentration after 5 min (MeCN 6.4% w/w, pH 3.6, 5° C.): 0.1 mg/mL
Structure (SMILES): CCCCCCCCCCCCCCCC(=O)N[C@@H](CCC(=O)NCCCC[C@H](NC(=O)[C@H](C)NC(=O)[C@H](C)NC(=O)[C@H](CCC(N)=O)NC(=O)CNC(=O)[C@H](CCC(=O)O)NC(=O)[C@H](CC(C)C)NC(=O)[C@H](Cc1ccc(O)cc1)NC(=O)[C@H](CO)NC(=O)[C@H](CO)NC(=O)[C@@H](NC(=O)[C@H](CC(=O)O)NC(=O)[C@H](CO)NC(=O)[C@@H](NC(=O)[C@H](Cc1ccccc1)NC(=O)[C@@H](NC(=O)CNC(=O)[C@H](CCC(=O)O)NC(=O)[C@H](C)NC(=O)[C@@H](N)Cc1cnc[nH]1)[C@@H](C)O)[C@@H](C)O)C(C)C)C(=O)N[C@@H](CCC(=O)O)C(=O)N[C@@H](Cc1ccccc1)C(=O)N[C@H](C(=O)N[C@@H](C)C(=O)N[C@@H](Cc1c[nH]c2ccccc12)C(=O)N[C@@H](CC(C)C)C(=O)N[C@H](C(=O)N[C@@H](CCCNC(=N)N)C(=O)NCC(=O)N[C@@H](CCCNC(=N)N)C(=O)NCC(=O)O)C(C)C)[C@@H](C)CC)C(=O)O [liraglutide, Arg34,Lys26-(N-epsilon-(gamma-L-glutamyl(N-alfa-hexadecanoyl)))-GLP-1(7-37)]

Source: US20210261642A1, “SOLUBILITY OF GLP-1 PEPTIDE” (Novo Nordisk A/S, priority 2017, published 2021)
